Source: patent US10626092B2, “Polymorphic forms of 3-[(2-butyl-1-(2-diethylamino-ethyl)-1H-benzoimidazol-5-yl]-N-hydroxy-acrylamide and uses thereof” (MEI PHARMA, INC., priority 2016, dated 2020)
Counter-ions that a name gives are not always drawn.

Assays:
Assay type in all cases: physicochemical
[1] = Physical stability under accelerated aging conditions (40° C./70% RH), physical form re-determined by HT-XRPD; conditions: physical stability under accelerated aging conditions (40° C./70% RH) for 48 hours
Procedure: Solids were analyzed for their physical stability under accelerated aging conditions (40° C./70% RH) for 48 hours. After the exposure, the physical form was determined again by HT-XRPD analysis. The physico-chemical characterization of the forms was done by TGMS analysis to determine the solvation state of the form and thermal events and by DSC analysis to confirm the thermal events observed in the SDTA signal of the TGA. (See Examples for details.)
Suspensions of 3-[2-butyl-1-(2-diethylamino-ethyl)-1H-benzoimidazol-5-yl]-N-hydroxy-acrylamide dihydrochloride monohydrate (Form 1) and 2.5 hydrate (Form 3) were prepared in 12 process relevant solvent systems. The suspensions were cycled between 5° C. and 50° C. followed by aging at 25° C. for 72 hours. […] Upon completion of the incubation time, the solids were collected, dried under ambient conditions and dried under deep vacuum before being analyzed by HT-XRPD. All the measured solids were exposed to accelerated ageing conditions (2 days at 40° C./70% RH) followed by re-analysis by HT-XRPD.
Long-term slurry conversion experiments were carried out by preparing suspensions of 3-[2-butyl-1-(2-diethylamino-ethyl)-1H-benzoimidazol-5-yl]-N-hydroxy-acrylamide dihydrochloride 2.5 hydrate (Form 3) and monohydrate (Form 1) in 12 different solvents and solvent mixtures. Approximately 30 mg of the specific form was dosed in a standard HPLC vial and aliquots of 100 μL of solvent until a suspension was formed. The suspensions were stirred for 2 weeks at room temperature and for 1 week at 50° C. The solids were isolated from the mother liquor and analyzed by HT-XRPD after mild drying under ambient conditions (ambient) and after thorough drying under vacuum (vacuum). All the solids were exposed to accelerated ageing conditions (2 days at 40° C./70% RH) and re-analyzed by HT-XRPD.
(§1) The competitive slurry experiments were performed in ethanol/water mixtures and methanol/water mixtures within a water activity range of 0-0.2. Approximately 50 mg of each pracinostat dihydrochloride solid form 2.5 hydrate and monohydrate were solid dosed in 1.8 mL HPLC vials. Aliquots of 100 μL of the different water mixtures were added until about half of the amount of solid was in solution. Subsequently, the vials were stirred for one week at 5° C., 21° C. and 50° C. Upon completion of the equilibration time, the solids were separated from the liquids by centrifugation. The solids were dried under ambient conditions (ambient) and dried under vacuum (vacuum) before HT-XRPD analysis. All solid samples were exposed to accelerated gaining conditions (40° C. and 70% RH) for two days (AAC). The water content in the liquid phase was determined Karl Fischer analysis.

[2] = Moisture sorption study (DVS analysis); conditions: for solid form recovered after DVS: HT-XRPD
Procedure: A moisture sorption study was performed to investigate the physical stability of 3-[2-butyl-1-(2-diethylamino-ethyl)-1H-benzoimidazol-5-yl]-N-hydroxy-acrylamide dihydrochloride 2.5 hydrate upon exposure to several relative humidity profiles. HT-XRPD analyses were performed on the solid material obtained after the DVS analyses. The analytical method is described herein.
Differences in hygroscopicity (moisture uptake) of the various forms of a solid material provided a measure of their relative stability at increasing relative humidity. Moisture sorption isotherms of small samples were obtained using a DVS-1 system from Surface Measurement Systems (London, UK); this instrument is suitable for use with as little as a few milligrams of sample, with an accuracy of 0.1 μg. Several humidity profile were applied as described in each individual experiment. Steps consisted of 10% RH. Weight equilibration per step was set with a minimum holding time of 1 hour (10% relative humidity step). At the end of the DVS experiments, the recovered solid material was measured by HT-XRPD.

[3] = Competitive slurry conversion (thermodynamic stability) of Form 1 and Form 3; conditions: ethanol/water, one week slurry
Procedure: as §1, with “Approximately 50 mg of each solid form were solid dosed in a standard HPLC vial followed by solvent addition. The competitive” for “The competitive”, “in solution. […] Upon completion” for “in solution. Subsequently, the vials were stirred for one week at 5° C., 21° C. and 50° C. Upon completion”

[4] = Long-term slurry conversion experiments; conditions: drying the solids under vacuum; converts to 2.5 hydrate Form 3
Procedure: Approximately 30 mg of the specific form was dosed in a standard HPLC vial and aliquots of 100 μL of solvent until a suspension was formed. […] The solids were isolated from the mother liquor and analyzed by HT-XRPD after mild drying under ambient conditions (ambient) and after thorough drying under vacuum (vacuum). All the solids were exposed to accelerated ageing conditions (2 days at 40° C./70% RH) and re-analyzed by HT-XRPD.

[5] = Variable temperature XRPD; conditions: 25° C. to 130° C.
Procedure: To investigate the phase interconversions upon temperature exposure, a variable temperature XRPD analysis on 3-[2-butyl-1-(2-diethylamino-ethyl)-1H-benzoimidazol-5-yl]-N-hydroxy-acrylamide dihydrochloride 2.5 hydrate was performed. The experiment was run between 25° C. to 130° C. with cooling back to 25° C. at the end. […] After reaching a temperature of 130° C., the material was cooled back to 25° C.
A variable temperature XRPD experiment with 3-[2-butyl-1-(2-diethylamino-ethyl)-1H-benzoimidazol-5-yl]-N-hydroxy-acrylamide dihydrochloride monohydrate was conducted to investigate the solid form conversion that occurred upon heating. The experiment was run between 25° C. to 143° C. followed by cooling to 25° C., reheating to 155° C. and then cooling again to 25° C. (see FIG. 19).
For variable humidity and temperature experiments the ANSYCO HT chamber was used, installed within the D8 Advance system diffractometer (Bruker) designed with Brag-Brentano geometry and equipped with LynxEye solid state detector. The radiation used for collecting the data was CuKα1 (λ=1.54056 Å) monochromatized by germanium crystal. The material was placed on a fixed sample holder that was mounted inside the chamber.
VT-XRPD: The temperature variation rate was 10° C./min and the equilibration time, prior to starting the data collection at each temperature, was 8 min. The patterns were collected in the range 4-41°2θ, with a step of 0.01573°2θ and measuring time per step of 1 sec. The data collection time, per temperature, was 40 min.

[6] = Desolvation studies: equilibration at 125° C. in high boiling point solvents; conditions: two days; for Form in Ambient AAC: then accelerated aging conditions
Procedure: Using solvent equilibration of hydrates in high boiling point solvents has been reported as a method to obtaining desolvated forms. […] The experiments were started with approximately 50 mg of material and 100 μL of solvent. After equilibration, the solids were isolated from the solutions by centrifugation. The solids were allowed to dry under ambient conditions before HT-XRPD analysis was performed. The wet solids were analyzed by HT-XRPD immediately to avoid hydration under ambient conditions or under vacuum.

Thermocycling studies = experiment: Thermocycling studies
Procedure: The suspensions were cycled between 5° C. and 50° C. followed by aging at 25° C. for 72 hours. […] Upon completion of the incubation time, the solids were collected, dried under ambient conditions and dried under deep vacuum before being analyzed by HT-XRPD. All the measured solids were exposed to accelerated ageing conditions (2 days at 40° C./70% RH) followed by re-analysis by HT-XRPD.

[7] = Moisture sorption study (DVS analysis); conditions: DVS; hydrate
[8] = four sorption-desorption cycles 0-95-0% RH

CCCCc1nc2cc(/C=C/C(=O)NO)ccc2n1CCN(CC)CC [Form 10, 3-[2-butyl-1-(2-diethylamino-ethyl)-1H-benzoimidazol-5-yl]-N-hydroxy-acrylamide dihydrochloride hemihydrate]
Stability ([1]; dihydrochloride hemihydrate): Unstable
physical stability under ambient conditions ([2]; form appearing at 0% RH, converts to 2.5 hydrate (Form 3)): physically unstable

CCCCc1nc2cc(/C=C/C(=O)NO)ccc2n1CCN(CC)CC [Form 4, 3-[2-butyl-1-(2-diethylamino-ethyl)-1H-benzoimidazol-5-yl]-N-hydroxy-acrylamide dihydrochloride 1.5 hydrate]
Stability ([1]; hydrate): Unstable

CCCCc1nc2cc(/C=C/C(=O)NO)ccc2n1CCN(CC)CC [Form 9, 3-[2-butyl-1-(2-diethylamino-ethyl)-1H-benzoimidazol-5-yl]-N-hydroxy-acrylamide dihydrochloride anhydrous]
Stability [1]: Unstable
water content of the solvent system at which the form is the most stable form ([3]; 50° C. (elevated temperatures)): below 1.5%
water content of the solvent system at which the form is the most stable / obtained form ([3]; ambient conditions): below 2.5%

CCCCc1nc2cc(/C=C/C(=O)NO)ccc2n1CCN(CC)CC [Form 5, 3-[2-butyl-1-(2-diethylamino-ethyl)-1H-benzoimidazol-5-yl]-N-hydroxy-acrylamide dihydrochloride]
Stability ([1]; dihydrochloride): Unstable

CCCCc1nc2cc(/C=C/C(=O)NO)ccc2n1CCN(CC)CC [Form 2, 3-[2-butyl-1-(2-diethylamino-ethyl)-1H-benzoimidazol-5-yl]-N-hydroxy-acrylamide dihydrochloride trihydrate]
Stability ([1]; dihydrochloride trihydrate): Unstable
physical stability upon drying [4]: physically unstable

CCCCc1nc2cc(/C=C/C(=O)NO)ccc2n1CCN(CC)CC [Form 3, 3-[2-butyl-1-(2-diethylamino-ethyl)-1H-benzoimidazol-5-yl]-N-hydroxy-acrylamide dihydrochloride 2.5 hydrate]
Stability ([1]; hydrate): Stable
solid form recovered after DVS ([2]; 0% RH for 18 hours): converted to a new solid form designated Form 6
hygroscopicity ([2]; DVS, hydrate): non-hygroscopic
gradual loss of water ([2]; constant 0% RH for 18 hours, in the first 5 hours): 8%
mass loss at 0% RH [2, 8]: about 2%
relative humidity below which the water is gradually lost [2, 8]: below 15 % RH
relative humidity values at which the form does not change [2, 8]: 25-95%
water loss between 5-0% RH ([2]; two sorption-desorption cycles 45-95-0-95-0-45% RH): about 2%
solid form recovered after DVS ([2]; two sorption-desorption cycles 45-95-0-95-0-45% RH, hydrate): 2.5 hydrate was recovered
temperature at which conversion to a new solid form was initially observed [5]: 60 °C
temperature at which conversion to the new solid form was completed [5]: 70 °C
temperature at which second conversion (to Form 5) was completed [5]: 110 °C
temperature at which second conversion (to Form 5) was observed [5]: 100 °C
Form in Ambient ([6]; Anisole): Mono
Form in Ambient AAC ([6]; Anisole): 2.5
Form in Ambient ([6]; Cumene): Mono
Form in Ambient AAC ([6]; Cumene, hydrate): 2.5 + Mono
Form in Ambient ([6]; N-Methyl-2-pyrrolidone, hydrate): Mono
Form in Ambient AAC ([6]; N-Methyl-2-pyrrolidone): 2.5
Form in Ambient ([6]; p-Xylene): Mono
Form in Ambient AAC ([6]; p-Xylene): 2.5
water content of the solvent system at which the form is the most stable / obtained form ([3]; 5° C. (below ambient), hydrate): above 2%
water content of the solvent system at which the form is the most stable / obtained form ([3]; ambient conditions, hydrate): above 3%
solid form after thermocycling (Thermocycling studies; ethanol, absolute or extra dry, hydrate): converted to the monohydrate Form 1
solid form after thermocycling (Thermocycling studies; methanol, no water present): converts to the monohydrate Form 1
relative stability of the form (Thermocycling studies; thermocycling in ethanol/water mixtures): most stable form in a wide range of ethanol/water mixtures
relative stability of the form (Thermocycling studies; thermocycling in methanol/water mixtures): most stable form in a wide range of methanol/water mixtures
hygroscopicity [7]: not hygroscopic
